Calls of active or inactive are those of the source. The rule behind the calls is not given here.
Columns and labels:
A549 [1] = experiment: Cell cycle arrest in human A549 cells assessed as accumulation at G2/M phase at 5 uM by propidium iodide staining based flow cytometric analysis (reference value: 12.77 +/- 1.55%); format: functional
A549 [2] = experiment: Induction of apoptosis in human A549 cells assessed as early apoptotic cells at 5 uM after 6 hrs by Annexin-V-FITC/Propidium iodide staining based flow cytometric analysis (reference value: 3.83 +/- 0.49%); format: functional
A549 [3] = experiment: Induction of apoptosis in human A549 cells assessed as viable cells at 10 uM after 48 hrs by Annexin-V-FITC/Propidium iodide staining based flow cytometric analysis (reference value: 92.46 +/- 4.23%); format: functional; conditions: A549, 48 h, read-out: Activity
A549 [4] = experiment: Induction of apoptosis in human A549 cells assessed as necrotic cells at 5 uM after 48 hrs by Annexin-V/Propidium iodide dual staining based flow cytometric analysis (reference value: 2.57 +/- 0.39%); format: functional
A549 [5] = experiment: Induction of apoptosis in human A549 cells assessed as viable cells at 10 uM after 6 hrs by Annexin-V-FITC/Propidium iodide staining based flow cytometric analysis (reference value: 95.48 +/- 2.03%); format: functional; conditions: A549, 6 h, read-out: Activity
A549 [6] = experiment: Cell cycle arrest in human A549 cells assessed as accumulation at G0/G1 phase at 20 uM by propidium iodide staining based flow cytometric analysis (reference value: 63.82 +/- 2.66%); format: functional
A549 [7] = experiment: Induction of apoptosis in human A549 cells assessed as late apoptotic cells at 5 uM after 6 hrs by Annexin-V-FITC/Propidium iodide staining based flow cytometric analysis (reference value: 0.41 +/- 0.19%); format: functional
A549 [8] = experiment: Induction of apoptosis in human A549 cells assessed as necrotic cells at 5 uM after 6 hrs by Annexin-V-FITC/Propidium iodide staining based flow cytometric analysis (reference value: 0.28 +/- 0.09%); format: functional
A549 [9] = experiment: Induction of cell cycle arrest in human A549 cells assessed as downregulation of p-Rb(Ser780) expression after 48 hrs by Western blot analysis; format: functional, cell-based
A549 [10] = experiment: Induction of apoptosis in human A549 cells assessed as early apoptotic cells at 20 uM after 48 hrs by Annexin-V/Propidium iodide dual staining based flow cytometric analysis (reference value: 3.53 +/- 0.89%); format: functional
A549 [11] = experiment: Cell cycle arrest in human A549 cells assessed as accumulation at G0/G1 phase at 5 uM by propidium iodide staining based flow cytometric analysis (reference value: 63.82 +/- 2.66%); format: functional
[12] = Antiproliferative activity against human MGC803 cells by MTT assay; format: functional, cell-based; conditions: MGC-803
A549 [13] = experiment: Cell cycle arrest in human A549 cells assessed as accumulation at S phase at 20 uM by propidium iodide staining based flow cytometric analysis (reference value: 23.41 +/- 2.19%); format: functional
A549 [14] = experiment: Induction of apoptosis in human A549 cells assessed as viable cells at 5 uM after 48 hrs by Annexin-V-FITC/Propidium iodide staining based flow cytometric analysis (reference value: 92.46 +/- 4.23%); format: functional; conditions: A549, 48 h, read-out: Activity
A549 [15] = experiment: Cell cycle arrest in human A549 cells assessed as accumulation at S phase at 10 uM by propidium iodide staining based flow cytometric analysis (reference value: 23.41 +/- 2.19%); format: functional
A549 [16] = experiment: Antiproliferative activity against human A549 cells by MTT assay; format: functional, cell-based
A549 [17] = experiment: Cell cycle arrest in human A549 cells assessed as accumulation at G2/M phase at 20 uM by propidium iodide staining based flow cytometric analysis (reference value: 12.77 +/- 1.55%); format: functional
[18] = molecular target: RAF proto-oncogene serine/threonine-protein kinase (Homo sapiens) (UniProt P04049); experiment: Inhibition of c-Raf in human A549 cells assessed as downregulation of phosphorylated ERK1/2 expression after 48 hrs by Western blot analysis; format: cell-based
A549 [19] = experiment: Induction of apoptosis in human A549 cells assessed as viable cells at 20 uM after 48 hrs by Annexin-V/Propidium iodide dual staining based flow cytometric analysis (reference value: 92.46 +/- 4.23%); format: functional; conditions: A549, 48 h, read-out: Activity
A549 [20] = experiment: Induction of apoptosis in human A549 cells assessed as upregulation of caspase-8 expression after 48 hrs by Western blot analysis; format: functional, cell-based
A549 [21] = experiment: Selectivity index, ratio of IC50 for human BEAS2B cells to IC50 for human A549 cells; format: functional
HepG2 = experiment: Antiproliferative activity against human HepG2 cells by MTT assay; format: functional, cell-based
A549 [22] = experiment: Induction of apoptosis in human A549 cells assessed as early apoptotic cells at 10 uM after 48 hrs by Annexin-V/Propidium iodide dual staining based flow cytometric analysis (reference value: 3.53 +/- 0.89%); format: functional
A549 [23] = experiment: Induction of apoptosis in human A549 cells assessed as viable cells at 5 uM after 6 hrs by Annexin-V-FITC/Propidium iodide staining based flow cytometric analysis (reference value: 95.48 +/- 2.03%); format: functional; conditions: A549, 6 h, read-out: Activity
A549 [24] = experiment: Cell cycle arrest in human A549 cells assessed as accumulation at S phase at 5 uM by propidium iodide staining based flow cytometric analysis (reference value: 23.41 +/- 2.19%); format: functional
A549 [25] = experiment: Induction of apoptosis in human A549 cells assessed as late apoptotic cells at 10 uM after 6 hrs by Annexin-V-FITC/Propidium iodide staining based flow cytometric analysis (reference value: 0.41 +/- 0.19%); format: functional
A549 [26] = experiment: Disruption of mitochondrial membrane potential in human A549 cells at 10 uM by JC-1 staining based laser scanning confocal microscopic analysis; format: functional, cell-based
A549 [27] = experiment: Disruption of mitochondrial membrane potential in human A549 cells assessed as ratio of green to red fluorescence intensity at 20 uM after 24 hrs by JC-1 staining based flow cytometric analysis; format: functional
A549 [28] = experiment: Cell cycle arrest in human A549 cells assessed as accumulation at G2/M phase at 10 uM by propidium iodide staining based flow cytometric analysis (reference value: 12.77 +/- 1.55%); format: functional
[29] = molecular target: RAF proto-oncogene serine/threonine-protein kinase (Homo sapiens) (UniProt P04049); experiment: Inhibition of C-Raf in human A549 cells after 48 hrs by Western blot analysis; format: cell-based
A549 [30] = experiment: Induction of apoptosis in human A549 cells assessed as necrotic cells at 10 uM after 6 hrs by Annexin-V-FITC/Propidium iodide staining based flow cytometric analysis (reference value: 0.28 +/- 0.09%); format: functional
A549 [31] = experiment: Induction of apoptosis in human A549 cells assessed as necrotic cells at 20 uM after 48 hrs by Annexin-V/Propidium iodide dual staining based flow cytometric analysis (reference value: 2.57 +/- […]%); format: functional
A549 [32] = experiment: Induction of apoptosis in human A549 cells assessed as late apoptotic cells at 10 uM after 48 hrs by Annexin-V/Propidium iodide dual staining based flow cytometric analysis (reference value: 1.44 +/- 0.43%); format: functional
A549 [33] = experiment: Induction of apoptosis in human A549 cells assessed as downregulation of Bcl-2 expression after 48 hrs by Western blot analysis; format: functional, cell-based
[34] = Cytotoxicity against human BEAS2B cells by MTT assay; format: cell-based; conditions: BEAS-2B
A549 [35] = experiment: Induction of apoptosis in human A549 cells assessed as upregulation of Bax expression after 48 hrs by Western blot analysis; format: functional, cell-based

Sequence of RAF proto-oncogene serine/threonine-protein kinase (Homo sapiens) (P04049 whole entry): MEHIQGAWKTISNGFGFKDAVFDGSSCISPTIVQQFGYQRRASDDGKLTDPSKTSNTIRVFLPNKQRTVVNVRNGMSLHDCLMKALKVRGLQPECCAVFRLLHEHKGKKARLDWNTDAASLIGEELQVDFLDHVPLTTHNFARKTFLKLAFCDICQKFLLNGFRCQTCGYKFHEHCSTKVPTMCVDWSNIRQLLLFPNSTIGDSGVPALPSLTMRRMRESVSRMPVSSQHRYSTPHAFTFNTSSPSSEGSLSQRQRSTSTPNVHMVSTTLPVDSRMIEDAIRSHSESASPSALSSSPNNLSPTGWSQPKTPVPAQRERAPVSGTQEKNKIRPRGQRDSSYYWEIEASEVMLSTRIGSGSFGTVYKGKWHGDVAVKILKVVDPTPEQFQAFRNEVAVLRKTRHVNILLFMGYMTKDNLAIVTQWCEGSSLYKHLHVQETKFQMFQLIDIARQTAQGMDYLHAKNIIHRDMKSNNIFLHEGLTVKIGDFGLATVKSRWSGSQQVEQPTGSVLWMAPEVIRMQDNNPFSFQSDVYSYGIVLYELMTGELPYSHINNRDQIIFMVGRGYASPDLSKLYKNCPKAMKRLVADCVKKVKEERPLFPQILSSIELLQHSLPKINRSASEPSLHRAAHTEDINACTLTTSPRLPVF

IC50 (A549 [16]): 5.21 µM | inhibition [18]: Dose-dependent effect | IC50 (HepG2): 6.85 µM | inhibition [29]: Dose-dependent effect
SMILES: COc1cc2ncnc(NCc3cccc(NC(=O)Nc4ccc(C(C)(C)C)cc4)c3)c2cc1OC
Activity (A549 [1]): 13.43% | Activity (A549 [2]): 4.21% | viability at 10 µM (A549 [3]): 67.5% | Activity (A549 [4]): 14.2% | viability at 10 µM (A549 [5]): 81.8% | Activity (A549 [6]): 95.33% | Activity (A549 [7]): 5.97% | Activity (A549 [8]): 0.44% | Activity (A549 [9]): Dose-dependent effect | Activity (A549 [10]): 0.57% | Activity (A549 [11]): 66.29% | IC50 [12]: 6.79 µM | Activity (A549 [13]): 3.6% | viability at 5 µM (A549 [14]): 75.4% | Activity (A549 [15]): 6.91% | Activity (A549 [17]): 1.07% | viability at 20 µM (A549 [19]): 51.6% | Activity (A549 [20]): Dose-dependent effect | Ratio IC50 (A549 [21]): >5 | Activity (A549 [22]): 1.83% | viability at 5 µM (A549 [23]): 89.4% | Activity (A549 [24]): 20.28% | Activity (A549 [25]): 5.4% | Activity (A549 [26]): Active | Ratio (A549 [27]): 125 | Activity (A549 [28]): 7.65% | Activity (A549 [30]): 0.56% | Activity (A549 [31]): 42.2% | Activity (A549 [32]): 7.83% | Activity (A549 [33]): Dose-dependent effect | IC50 [34]: 26.5 µM | Activity (A549 [35]): Dose-dependent effect
